Data taken from PMC9305623, “Next generation GLP-1/GIP/glucagon triple agonists normalize body weight in obese mice” (Molecular Metabolism, 2022).
*1 amine or outer side, *2 acyl side, *3 side chain or, on linkers, in order; H or OH if unused. Where a SMILES comes first, the peptide text is derived from it. Side-chain parts run from the residue outwards. [ ]: non-standard residue; d: D form. The star is where a group is joined. C20 diacid = O=C(O)CCCCCCCCCCCCCCCCCCC(=O)*; γGlu = O=C(O)[C@H](CCC(=O)[*:2])N[*:1]; εLys = N[C@@H](CCCCN[*:1])C(=O)[*:2]; Aib = CC(C)(N)C(=O)O

What was measured:
hGLP-1 Receptor = biological target: T1, hGLP-1 Receptor (Homo sapiens, UniProt P43220); experiment: Receptor activation: cAMP production by CRE-luciferase reporter in stably transfected BHK cells; type: cell-based; settings: compared to the native ligand for the receptor
T1 construct: expressed in transfected cells; host or cells: baby hamster kidney (BHK) cells, stably transfected, with CRE-firefly luciferase reporter
T1 sequence (P43220 24-463): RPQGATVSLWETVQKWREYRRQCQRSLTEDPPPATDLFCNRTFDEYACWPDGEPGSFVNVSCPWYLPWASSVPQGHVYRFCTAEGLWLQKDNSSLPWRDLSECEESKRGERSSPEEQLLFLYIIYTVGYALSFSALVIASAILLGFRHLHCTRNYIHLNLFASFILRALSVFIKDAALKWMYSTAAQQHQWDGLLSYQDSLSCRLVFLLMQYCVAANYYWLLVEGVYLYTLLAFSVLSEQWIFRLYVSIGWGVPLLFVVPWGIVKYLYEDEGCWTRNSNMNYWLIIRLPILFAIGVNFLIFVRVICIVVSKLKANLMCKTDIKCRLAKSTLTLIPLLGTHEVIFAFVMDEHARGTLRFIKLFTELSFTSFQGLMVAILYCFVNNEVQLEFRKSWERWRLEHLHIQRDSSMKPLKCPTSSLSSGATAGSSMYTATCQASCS
Protocol: (§1) Cyclic AMP (cAMP) production was assessed as a proxy for receptor activation using stably transfected baby hamster kidney (BHK) cell lines expressing the DNA for one individual receptor (GLP-1R, GIPR, GcgR; human- or mouse-specific sequence) and the DNA for the firefly luciferase reporter gene linked to the cAMP response element (CRE). The cells were kept in continuous culture at 37 °C and 5% CO2 in Dulbecco's Modified Eagle Medium (DMEM) supplemented with 10% heat-inactivated fetal bovine serum (HI-FBS), 300 μg/mL hygromycin, and 500 μg/mL G418; for cell lines expressing GIPR, the G418 concentration was lowered to 400 μg/mL. Cells were plated in a 96-well poly-D-lysine-coated plate at 5,000 cells per well in growth media and incubated overnight at 37 °C with 5% CO2. After the overnight incubation, the media was removed, the plate was washed once in Dulbecco's phosphase-buffered saline (DPBS), and 50 μL of assay buffer (DMEM without phenol red, 10 mM HEPES, 1x Glutamax, 1% ovalbumin, 0.1% Pluronic F-68) was added to each well. […] Aliquots of the dilution curves were added to the cell plate in a volume of 50 μL per well resulting in final assay concentrations ranging from 1 × 10^−14 to 1 × 10^−7 M. The assay plate was incubated for 3 h at 37 °C and 5% CO2. After the incubation, the assay plate was washed once with DPBS. A 100 μL aliquot of DPBS was added to each well followed by 100 μL of steadylite plus reagent (PerkinElmer). The assay plate was covered to protect reagent from light, shaken at 250 rpm at room temperature for 30 min, and read in a microtiter plate reader. EC50 values were calculated using Prism software (GraphPad) with the nonlinear regression log(agonist) vs. response. A minimum of two replicates were measured for each sample.

hGIP Receptor = biological target: T2, hGIP Receptor (Homo sapiens, UniProt P48546); experiment: as above; type: cell-based; settings: compared to the native ligand for the receptor
T2 construct: expressed in transfected cells; host or cells: baby hamster kidney (BHK) cells, stably transfected, with CRE-firefly luciferase reporter
T2 sequence (P48546 22-466): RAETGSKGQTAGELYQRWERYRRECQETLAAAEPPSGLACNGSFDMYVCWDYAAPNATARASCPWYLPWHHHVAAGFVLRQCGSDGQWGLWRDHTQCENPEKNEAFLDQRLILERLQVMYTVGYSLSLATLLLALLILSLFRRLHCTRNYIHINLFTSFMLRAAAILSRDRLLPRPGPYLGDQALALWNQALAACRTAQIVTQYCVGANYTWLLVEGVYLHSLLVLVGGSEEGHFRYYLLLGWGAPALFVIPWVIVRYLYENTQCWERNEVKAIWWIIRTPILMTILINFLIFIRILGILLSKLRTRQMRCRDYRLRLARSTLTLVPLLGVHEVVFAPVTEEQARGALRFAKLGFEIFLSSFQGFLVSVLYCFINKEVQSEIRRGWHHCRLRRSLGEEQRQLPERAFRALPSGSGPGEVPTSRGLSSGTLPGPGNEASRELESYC
Protocol: as §1

hGcg Receptor = biological target: T3, hGcg Receptor (Homo sapiens, UniProt P47871); experiment: as above; type: cell-based; settings: compared to the native ligand for the receptor
T3 construct: expressed in transfected cells; host or cells: baby hamster kidney (BHK) cells, stably transfected, with CRE-firefly luciferase reporter
T3 sequence (P47871 26-477): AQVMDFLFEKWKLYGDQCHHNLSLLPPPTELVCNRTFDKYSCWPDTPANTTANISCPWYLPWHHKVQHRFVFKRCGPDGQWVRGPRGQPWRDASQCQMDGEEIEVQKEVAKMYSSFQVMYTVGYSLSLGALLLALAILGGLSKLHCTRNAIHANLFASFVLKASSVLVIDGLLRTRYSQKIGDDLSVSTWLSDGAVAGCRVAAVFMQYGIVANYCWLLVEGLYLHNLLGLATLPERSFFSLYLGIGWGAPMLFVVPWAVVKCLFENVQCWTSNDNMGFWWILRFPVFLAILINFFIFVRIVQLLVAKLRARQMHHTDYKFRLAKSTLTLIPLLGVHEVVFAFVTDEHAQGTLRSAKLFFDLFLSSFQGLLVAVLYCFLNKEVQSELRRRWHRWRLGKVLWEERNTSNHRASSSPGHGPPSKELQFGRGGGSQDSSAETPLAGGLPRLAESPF
Protocol: as §1

in vivo = experiment: in vivo; parameters: species or system Göttingen minipigs; settings: female, Göttingen, minipig, iv, 2 nmol/kg
Protocol: Studies were conducted in accordance with the Protection of Animals Act, the Act on Experiments on Animals, and the Standard Operating Procedures for Experiments on Animals at Novo Nordisk A/S. The experiments were performed under the supervision and approval of the Danish Government Animal Experiments Inspectorate and the Novo Nordisk Ethical Review Counsel. Female Göttingen minipigs (Ellegaard Göttingen Minipigs A/S), 7–14 months old and weighing 16–35 kg, were housed individually and fed once daily with a restricted SDS minipig diet (Special Diets Services). At least one week before the study, two permanent central venous catheters were implanted in the caudal vena cava of each animal. The animals were fasted for approximately 18 h before dosing and 4 h after dosing but had ad libitum access to water during the whole period. Test compounds dissolved to a concentration of 20–40 nmol/mL in a vehicle (pH 7.4) containing 0.025% polysorbate-20, 10 mM sodium phosphate, and 250 mM glycerol were administered via an intravenous injection through one catheter at a dose of 2 nmol/kg. Blood samples were collected in 8 mM aqueous EDTA for up to 14 days post dosing, preferably through the other catheter, then centrifuged at 4 °C and ∼2000g for 10 min. Plasma was isolated and immediately frozen until RP-HPLC/MS analysis. Individual plasma concentration–time profiles were analysed by a non-compartmental model in Phoenix WinNonLin software (Pharsight Inc.), and the resulting terminal half-lives were determined at the harmonic mean.

SMILES | hGLP-1 Receptor Relative Potency % (hGLP-1 Receptor) [%] | hGIP Receptor Relative Potency % (hGIP Receptor) [%] | hGcg Receptor Relative Potency % (hGcg Receptor) [%] | Vd (in vivo) [L/kg] | clearance (in vivo) [mL/h/kg]
CC[C@H](C)[C@H](NC(=O)[C@H](CO)NC(=O)[C@H](Cc1ccc(O)cc1)NC(=O)[C@H](CC(=O)O)NC(=O)[C@H](CO)NC(=O)[C@@H](NC(=O)[C@H](Cc1ccccc1)NC(=O)[C@@H](NC(=O)CNC(=O)[C@H](CCC(N)=O)NC(=O)C(C)(C)NC(=O)[C@@H](N)Cc1c[nH]cn1)[C@@H](C)O)[C@@H](C)O)C(=O)N[C@@H](Cc1ccc(O)cc1)C(=O)N[C@@H](CC(C)C)C(=O)N[C@@H](CCC(=O)O)C(=O)N[C@@H](CCCCNC(=O)[C@@H](N)CCCCNC(=O)[C@@H](N)CCCCNC(=O)CC[C@H](NC(=O)CCCCCCCCCCCCCCCCCCC(=O)O)C(=O)O)C(=O)N[C@@H](CCC(N)=O)C(=O)N[C@@H](C)C(=O)N[C@@H](C)C(=O)NC(C)(C)C(=O)N[C@@H](CCC(=O)O)C(=O)N[C@@H](Cc1ccccc1)C(=O)N[C@H](C(=O)N[C@@H](CCC(N)=O)C(=O)N[C@@H](Cc1c[nH]c2ccccc12)C(=O)N[C@@H](CC(C)C)C(=O)N[C@@H](CC(C)C)C(=O)N[C@@H](CCC(=O)O)C(=O)NCC(=O)NCC(=O)N1CCC[C@H]1C(=O)N[C@@H](CO)C(=O)N[C@@H](CO)C(=O)NCC(=O)N[C@@H](C)C(=O)N1CCC[C@H]1C(=O)N1CCC[C@H]1C(=O)N1CCC[C@H]1C(=O)N[C@@H](CO)C(N)=O)C(C)C [Compound 12] (H-H[Aib]QGTFTSDYSIYLEK([εLys-εLys-γGlu-C20 diacid])QAA[Aib]EFVQWLLEGGPSSGAPPPS-NH2) | 410 | 19 | 3 |  | 
CCCCCCCCCCCCCCCC(=O)NCCCC[C@H](NC(=O)[C@H](CO)NC(=O)[C@@H]1CCCN1C(=O)[C@@H]1CCCN1C(=O)[C@@H]1CCCN1C(=O)[C@H](C)NC(=O)CNC(=O)[C@H](CO)NC(=O)[C@H](CO)NC(=O)[C@@H]1CCCN1C(=O)CNC(=O)CNC(=O)[C@H](C)NC(=O)[C@H](CC(C)C)NC(=O)[C@H](CC(C)C)NC(=O)[C@H](Cc1c[nH]c2ccccc12)NC(=O)[C@H](CC(N)=O)NC(=O)[C@@H](NC(=O)[C@H](Cc1ccccc1)NC(=O)[C@H](CCC(=O)O)NC(=O)C(C)(C)NC(=O)[C@H](C)NC(=O)[C@H](C)NC(=O)[C@H](CCC(N)=O)NC(=O)[C@H](CCCCN)NC(=O)[C@H](CC(=O)O)NC(=O)[C@H](CC(C)C)NC(=O)[C@H](Cc1ccc(O)cc1)NC(=O)[C@@H](NC(=O)[C@H](CO)NC(=O)[C@H](Cc1ccc(O)cc1)NC(=O)[C@H](CC(=O)O)NC(=O)[C@H](CO)NC(=O)[C@@H](NC(=O)[C@H](Cc1ccccc1)NC(=O)[C@@H](NC(=O)CNC(=O)[C@H](CCC(N)=O)NC(=O)C(C)(C)NC(=O)[C@@H](N)Cc1ccc(O)cc1)[C@@H](C)O)[C@@H](C)O)[C@@H](C)CC)C(C)C)C(N)=O [Compound 5] | 199 | 173 | 33 |  | 
CC[C@H](C)[C@H](NC(=O)[C@H](CO)NC(=O)[C@H](Cc1ccc(O)cc1)NC(=O)[C@H](CC(=O)O)NC(=O)[C@H](CO)NC(=O)[C@@H](NC(=O)[C@H](Cc1ccccc1)NC(=O)[C@@H](NC(=O)CNC(=O)[C@H](CCC(N)=O)NC(=O)C(C)(C)NC(=O)[C@@H](N)Cc1ccc(O)cc1)[C@@H](C)O)[C@@H](C)O)C(=O)N[C@@H](Cc1ccc(O)cc1)C(=O)N[C@@H](CC(C)C)C(=O)N[C@@H](CC(=O)O)C(=O)N[C@@H](CCCCNC(=O)COCCOCCNC(=O)COCCOCCNC(=O)CC[C@H](NC(=O)CCCCCCCCCCCCCCCCCCC(=O)O)C(=O)O)C(=O)N[C@@H](CCC(N)=O)C(=O)N[C@@H](C)C(=O)N[C@@H](C)C(=O)NC(C)(C)C(=O)N[C@@H](CCC(=O)O)C(=O)N[C@@H](Cc1ccccc1)C(=O)N[C@H](C(=O)N[C@@H](CC(N)=O)C(=O)N[C@@H](Cc1c[nH]c2ccccc12)C(=O)N[C@@H](CC(C)C)C(=O)N[C@@H](CC(C)C)C(=O)N[C@@H](C)C(=O)NCC(=O)NCC(=O)N1CCC[C@H]1C(=O)N[C@@H](CO)C(=O)N[C@@H](CO)C(=O)NCC(=O)N[C@@H](C)C(=O)N1CCC[C@H]1C(=O)N1CCC[C@H]1C(=O)N1CCC[C@H]1C(=O)N[C@@H](CO)C(N)=O)C(C)C [Compound 8] | 101 | 39 | 6 | 0.154 | 1.2
CC[C@H](C)[C@H](NC(=O)[C@H](CO)NC(=O)[C@H](Cc1ccc(O)cc1)NC(=O)[C@H](CC(=O)O)NC(=O)[C@H](CO)NC(=O)[C@@H](NC(=O)[C@H](Cc1ccccc1)NC(=O)[C@@H](NC(=O)CNC(=O)[C@H](Cc1c[nH]cn1)NC(=O)C(C)(C)NC(=O)[C@@H](N)Cc1c[nH]cn1)[C@@H](C)O)[C@@H](C)O)C(=O)N[C@@H](Cc1ccc(O)cc1)C(=O)N[C@@H](CC(C)C)C(=O)N[C@@H](CCC(=O)O)C(=O)N[C@@H](CCCCNC(=O)[C@@H](N)CCCCNC(=O)[C@@H](N)CCCCNC(=O)CC[C@H](NC(=O)CCCCCCCCCCCCCCCCCCC(=O)O)C(=O)O)C(=O)N[C@@H](CCC(N)=O)C(=O)N[C@@H](Cc1ccc(O)cc1)C(=O)N[C@@H](C)C(=O)NC(C)(C)C(=O)N[C@@H](CCC(=O)O)C(=O)N[C@@H](Cc1ccccc1)C(=O)N[C@H](C(=O)N[C@@H](CCC(N)=O)C(=O)N[C@@H](Cc1c[nH]c2ccccc12)C(=O)N[C@@H](CC(C)C)C(=O)N[C@@H](CC(C)C)C(=O)N[C@@H](CCC(=O)O)C(=O)NCC(=O)NCC(=O)N1CCC[C@H]1C(=O)N[C@@H](CO)C(=O)N[C@@H](CO)C(=O)NCC(=O)N[C@@H](C)C(=O)N1CCC[C@H]1C(=O)N1CCC[C@H]1C(=O)N1CCC[C@H]1C(=O)N[C@@H](CO)C(N)=O)C(C)C [Compound 15] (H-H[Aib]HGTFTSDYSIYLEK([εLys-εLys-γGlu-C20 diacid])QYA[Aib]EFVQWLLEGGPSSGAPPPS-NH2) | 101 | 135 | 72 |  | 
CC[C@H](C)[C@H](NC(=O)[C@H](CO)NC(=O)[C@H](Cc1ccc(O)cc1)NC(=O)[C@H](CC(=O)O)NC(=O)[C@H](CO)NC(=O)[C@@H](NC(=O)[C@H](Cc1ccccc1)NC(=O)[C@@H](NC(=O)CNC(=O)[C@H](Cc1c[nH]cn1)NC(=O)C(C)(C)NC(=O)[C@@H](N)Cc1ccc(O)cc1)[C@@H](C)O)[C@@H](C)O)C(=O)N[C@@H](Cc1ccc(O)cc1)C(=O)N[C@@H](CC(C)C)C(=O)N[C@@H](CCC(=O)O)C(=O)N[C@@H](CCCCNC(=O)[C@@H](N)CCCCNC(=O)[C@@H](N)CCCCNC(=O)CC[C@H](NC(=O)CCCCCCCCCCCCCCCCCCC(=O)O)C(=O)O)C(=O)N[C@@H](CCC(N)=O)C(=O)N[C@@H](C)C(=O)N[C@@H](C)C(=O)NC(C)(C)C(=O)N[C@@H](CCC(=O)O)C(=O)N[C@@H](Cc1ccccc1)C(=O)N[C@H](C(=O)N[C@@H](CCC(N)=O)C(=O)N[C@@H](Cc1c[nH]c2ccccc12)C(=O)N[C@@H](CC(C)C)C(=O)N[C@@H](CC(C)C)C(=O)N[C@@H](CCC(=O)O)C(=O)NCC(=O)NCC(=O)N1CCC[C@H]1C(=O)N[C@@H](CO)C(=O)N[C@@H](CO)C(=O)NCC(=O)N[C@@H](C)C(=O)N1CCC[C@H]1C(=O)N1CCC[C@H]1C(=O)N1CCC[C@H]1C(=O)N[C@@H](CO)C(N)=O)C(C)C [Compound 11] (H-Y[Aib]HGTFTSDYSIYLEK([εLys-εLys-γGlu-C20 diacid])QAA[Aib]EFVQWLLEGGPSSGAPPPS-NH2) | 7 | 147 | 13 |  | 
